Laboratory results published in paper PMC9920998, “Synthesis of Oleanolic Acid-Dithiocarbamate Conjugates and Evaluation of Their Broad-Spectrum Antitumor Activities” (Molecules, 2023).

How the values were obtained:
Format in all cases: cell-based
[1] = test system: HT-29 cells (human colon cancer); experiment: MTT cytotoxicity assay, HT-29; conditions: HT-29, MTT, 48 h exposure
Method: (§1) Having obtained a series of structurally diverse OA-dithiocarbamates, we next performed a systematic biological evaluation to examine whether introducing an extra dithiocarbamate group could improve antitumor activities. These compounds were evaluated by MTT assay against human pancreatic cancer (Panc1), human lung cancer (A549), human hepatoma cell (Hep3B), human hepatoma cell (Huh-7), human colon cancer (HT-29), and human cervical cancer (Hela) cells, with the widely used anticancer drugs fluorouracil, docetaxel, and cisplatin as positive controls (Table 2). […] Moreover, the cytotoxicities of compounds 3a-3t were also evaluated in human normal hepatocytes (LO2) to determine whether these compounds preferred killing tumor cells over normal cells.
(§2) The optical density at 490 nm of each well was measured using a microplate reader (Molecular devices corporation, Sunnyvale, CA. USA) to calculate the percent of cell viability. The inhibition rates were calculated using GraphPad Prism 7.0 software. The seven tested cell lines were obtained from the laboratory of Molecular Pharmacology, Department of Pharmacology, School of Pharmacy, Southwest Medical University.
(§3) The in vitro cytotoxic activities of the compounds were evaluated by MTT assay against Panc1, A549, Hep3B, Huh-7, HT-29, Hela, LO2. Cell lines were obtained from the Laboratory of Molecular Pharmacology, Southwest Medical University. Briefly, different tumor cells grew in DMEM medium except for A549, which used 1640 medium. Cells ((3–5) × 10^3 cells/well) were harvested at the log phase of growth and seeded in 96-well plates. After 24 h incubation at 37 °C in 5% CO2 to allow cell attachment, cultures were exposed to various concentrations of the isolated compounds for 48 h. Finally, the MTT solution was added. Plates were further incubated for 4 h at 37 °C after adding 150 µL/well of DMSO and shaking for 10 min on the shaker platform. The plates were read in a 96-well plate reader at 490 nm wavelength. The results were expressed as IC50 values, and were defined as the concentration at which 50% survival of cells was obtained. Fluorouracil, docetaxel, and cisplatin were co-assayed as positive controls.

[2] = test system: Huh-7 cells (human hepatoma cell); experiment: MTT cytotoxicity assay, Huh-7; conditions: Huh-7, MTT, 48 h exposure
Method: as §1, §2, §3

[3] = test system: Hela cells (human cervical cancer); experiment: MTT cytotoxicity assay, Hela; conditions: 48 h exposure
Method: as §1, §2, §3

[4] = test system: Hep3B cells (human hepatoma cell); experiment: MTT cytotoxicity assay, Hep3B; conditions: 48 h exposure
Method: as §1, §2, §3

[5] = test system: LO2 cells (human normal hepatocytes); experiment: MTT cytotoxicity assay, LO2 normal cells
Method: as §1, §2, §3

[6] = test system: A549 cells (human lung cancer); experiment: MTT cytotoxicity assay, A549; conditions: 48 h exposure
Method: as §1, §2, §3

[7] = test system: Panc1 cells (human pancreatic cancer); experiment: MTT cytotoxicity assay, Panc1
Method: as §1, §2, §3

[8] = Homo sapiens, PANC-1, 48 h exposure

N.N.[Cl][Pt][Cl] [Cisplatin]
IC50 [1]: > 200 µM
IC50 [2]: > 200 µM
IC50 [3]: 142 µM
IC50 [4]: > 200 µM
IC50 ([5]; 48 h exposure): > 200 µM
IC50 [6]: > 200 µM
IC50 ([7]; 48 h exposure): > 200 µM

CC1(C)CC[C@]2(C(=O)OCCSC(=S)N3CCCC3)CC[C@]3(C)C(=CC[C@@H]4[C@@]5(C)CC[C@H](O)C(C)(C)[C@@H]5CC[C@]43C)[C@@H]2C1 [3a, [2-((pyrrolidine-1-carbonothioyl)thio)ethyl] 3-hydroxy-12-en-28-oic acid]
IC50 ([2]; Homo sapiens): 145 µM
IC50 ([3]; Homo sapiens): 89.4 µM
IC50 ([4]; Homo sapiens): > 200 µM
IC50 ([5]; L02, 48 h exposure): 113 µM
IC50 ([6]; Homo sapiens): 92.1 µM
IC50 [7, 8]: > 200 µM

O=c1[nH]cc(F)c(=O)[nH]1 [5-fluorouracil]
IC50 ([1]; Homo sapiens): 93.3 µM
IC50 ([2]; Homo sapiens): 140 µM
IC50 ([3]; Homo sapiens): 130 µM
IC50 ([4]; Homo sapiens): 152 µM
IC50 ([5]; L02, 48 h exposure): 109 µM
IC50 ([6]; Homo sapiens): 125 µM
IC50 [7, 8]: 160 µM

CC1(C)CC[C@]2(C(=O)O)CC[C@]3(C)C(=CC[C@@H]4[C@@]5(C)CC[C@H](O)C(C)(C)[C@@H]5CC[C@]43C)[C@@H]2C1 [OA, oleanolic acid]
IC50 ([1]; Homo sapiens): > 200 µM
IC50 ([2]; Homo sapiens): > 200 µM
IC50 ([3]; Homo sapiens): > 200 µM
IC50 ([4]; Homo sapiens): > 200 µM
IC50 ([5]; L02, 48 h exposure): 140 µM
IC50 ([6]; Homo sapiens): > 200 µM
IC50 [7, 8]: > 200 µM

CC(=O)O[C@@]12CO[C@@H]1C[C@H](O)[C@@]1(C)C(=O)[C@H](O)C3=C(C)[C@@H](OC(=O)[C@H](O)[C@@H](NC(=O)OC(C)(C)C)c4ccccc4)C[C@@](O)([C@@H](OC(=O)c4ccccc4)[C@H]21)C3(C)C [Docetaxel]
IC50 ([1]; Homo sapiens): > 200 µM
IC50 ([2]; Homo sapiens): 104 µM
IC50 ([3]; Homo sapiens): 135 µM
IC50 ([4]; Homo sapiens): 172 µM
IC50 ([5]; L02, 48 h exposure): 140 µM
IC50 ([6]; Homo sapiens): > 200 µM
IC50 [7, 8]: > 200 µM
